From US8039430B2 (University of Wollongong, priority 2005, dated 2011) come the findings set out here.

Where a name gives a salt, the structure may show the parent alone. Read-outs that look alike come from different tables or passages of the source. Square brackets hold non-standard residues; d marks the D form. Peptide text beside a SMILES is read from it. * marks the point of attachment. Fmoc = O=C(OCC1c2ccccc2-c2ccccc21)*; dAllylGly = C=CC[C@@H](N)C(=O)O; AllylGly = C=CC[C@H](N)C(=O)O

The test system of experiment [1] is Staphylococcus aureus strain ATCC 6538P. As to the kind of experiment: Antibacterial screening (MIC) of compounds of Example 2, S. aureus, Mueller-Hinton broth. The experiment is classed as cell-based. The procedure: Antibacterial Screening Methodology for Compounds of Example 2
• All assays used the Staphylococcus aureus strain ATCC 6538P. • Assays described in Chapter 5 additionally used the vancomycin-resistant enterococci and vancomycin-sensitive enterococci strains Ef243, Ef449, Ef820 and Ef487. Culture Media • Mueller-Hinton Broth Medium (MHB): MHB (Oxoid CM405) was prepared with final concentrations of […] MgCl2 and 2 μg/mL CaCl2. Culture medium was pre-warmed for approximately 2-3 h at 37° C. before use. • Mueller-Hinton Agar Medium (MHA): MMB containing 1.5% Agar (Merck Agar 1.01614). Maintenance of Bacteria • From a thawed cryovial, the bacteria was streaked onto MHA and the plate incubated overnight at 37° C. • From this plate, 10 cryovials were prepared by looping several colonies into 0.5 mL of 20% glycerol solution. The cryovials were immediately stored at −140° C. Preparation of Seed Cultures • A cryovial was removed from −140° C. storage and thawed at room temperature. • An MHA plate was streaked with a loopful of bacterial suspension and incubated overnight at 37° C. to create a parent plate (P1). • A daughter plate (D1) was streaked from the parent plate and incubated overnight at 37° C. […] The second parent plate (P2) was used to generate two additional daughter plates using the procedure outlined above before being discarded. • Cryovials were used twice to prepare parent plates (P1 and P2) before being discarded. […] A vancomycin control set (triplicate) and a compound negative control set (triplicate) were also included on each plate (FIG. 1). • The inoculated culture medium was incubated at 37° C. for 30 min, with shaking at 130 rpm. • Using a multichannel pipette, the contents of the first row were mixed before 50 μL was transferred to the second row. The pipette tips were changed and the process repeated by 50 μL of the mixed broth solutions in the second row being transferred to the third row. This process was repeated until the last row contained either the diluted test compound or a control (vancomycin or compound-negative). […] Antibacterial Testing of Compounds of Example 2 Introduction
The specific testing procedures and protocols are outlined in the section “Antibacterial Screening Methodology for the Compounds of Example 2”.
The antibacterial activity results are measured by minimum inhibitory concentration (MIC), which is the lowest concentration of compound necessary to prevent bacterial growth.

Experiment [2] relates to Staphylococcus aureus (ATCC 6538P). As to the kind of experiment: Antibacterial assay (MIC), Staphylococcus aureus ATCC 6538P, Luria Broth, Example 1. The experiment is classed as cell-based. The note with it: Example 1 compounds, S. aureus ATCC 6538P, 24 hrs, 37° C., range if at least two of three values fell within it. The procedure:
(§1) Antibacterial Assay Method for Staphylococcus aureus (ATCC 6538P) and Enterococcus faecium
Staphylococcus aureus (ATCC 6538P)
(§2) Compounds are accurately weighed out (between approx. 1-2 mg) and dissolved in either 10% methanol/water (v/v) or 100% DMSO to a final stock concentration of 5 mg/ml.
(§3) Compounds are then diluted 1/10 in H2O to a test conc of 500 ug/ml ready for immediate use, or storage at −20° C.
(§4) Grow up an o/n starter culture of Staphylococcus aureus and each VRE strain by diluting previous culture (stored at 4° C.) 1/1000 into −50 mls Luria Broth (LB) for S. aureus or Enterococossel Broth (EB) for the VRE strains.
(§5) Incubate o/n at 37° C.+shaking. • A glycerol stock (0.6 mls bacterial culture, 0.3 mls glycerol) of each strain is kept at −80° C. if needed. Assay Set Up:
(§6) In a 96well round bottom plate add 50 ul LB/well for the S. aureus plate and add 50 ul EB/well for the VRE plates.
(§7) Add 50 ul of compound dilution (500 ug/ml test conc) to each of three top row wells (ie: tested in triplicate) and dilute 1 in 2 from the top row to the bottom row.
(§8) After the compound dilution, add to each well 50 ul of a 1/1000 dilution of the appropriate overnight bacterial culture, either S. aureus or the different VRE strains.
(§9) Plates are incubated at 37° C. on a slowly rotating plate incubator. • test concentrations are (in ug/ml) 125, 62.5, 31.25, 15.6, 7.8, 3.9, 1.9, 0.98 • final DMSO concentration in the first row of wells of the assay is 2.5% • Vancomycin is included in the assay (in triplicate) at a starting test concentration of 5 ug/ml for S. aureus and 125 ug/ml for the VRE strains Reading Results of Assay:
(§10) After incubation for 24 hrs the plates are removed and read. Inhibition of bacterial growth is indicated by lack of bacterial pellet or a clear well. In the VRE plates bacterial growth is indicated by black coloured media (EB) as well as a bacterial pellet.
(§11) Untreated control wells are included in the assay to check they all contain bacterial pellets. Uninoculated untreated control wells are included to check they all contain clear medium.
(§12) The plates are analysed for MIC and the results tabulated.

Experiment [3] concerns #243 E. faecium van B ST17. As to the kind of experiment: Antibacterial assay (MIC), VRE strain #243, Enterococossel Broth, Example 1. The experiment is classed as cell-based, Enterococcus faecium. The note with it: Example 1 compounds, VRE #243 E. faecium van B, 24 hrs, 37° C. As for the experimental part:
as §1
(§13) VRE strains: #243 E. faecium van B ST17 #449 E. faecium van B ST17
as §2, §3, §4, §5, §6, §7, §8, §9, §10, §11, §12

In experiment [4] the test system is #449 E. faecium van B ST17. As to the kind of experiment: Antibacterial assay (MIC), VRE strain #449, Enterococossel Broth, Example 1. Conditions: Example 1 compounds, VRE #449 E. faecium van B, 24 hrs, 37° C. The class given is cell-based, Enterococcus faecium. As for the experimental part:
as §1, §13, §2, §3, §4, §5, §6, §7, §8, §9, §10, §11, §12

The test system of experiment [5] is #820 E. faecium van A ST17. As to the kind of experiment: Antibacterial assay (MIC), VRE strain #820, Enterococossel Broth, Example 1. Conditions: Example 1 compounds, VRE #820 E. faecium van A, 24 hrs, 37° C. The class given is cell-based, Enterococcus faecium. As for the experimental part: as §1
(§14) #820 E. faecium van A ST17 #987 E. faecium van B ST39
as §2, §3, §4, §5, §6, §7, §8, §9, §10, §11, §12

Experiment [6] concerns #987 E. faecium van B ST39. As to the kind of experiment: Antibacterial assay (MIC), VRE strain #987, Enterococossel Broth, Example 1. The experiment is classed as cell-based, Enterococcus faecium. Conditions: Example 1 compounds, VRE #987 E. faecium van B, 24 hrs, 37° C. The procedure: as §1, §14, §2, §3, §4, §5, §6, §7, §8, §9, §10, §11, §12
The mark [7] stands for this setting: Staphylococcus aureus, ATCC6538P, Example 2 compounds, S. aureus, 18 h, 37° C., read-out: Antibacterial activity (MIC μg/mL).
The mark [8] stands for this setting: Staphylococcus aureus, ATCC6538P, 18 h, read-out: Antibacterial activity (MIC μg/mL).

Consider `C=CCOc1ccc(C[C@H](NC(=O)[C@H](CCCCN)NC(=O)OCC2c3ccccc3-c3ccccc32)C(=O)OC)cc1.Cl` [Compound 74, Methyl(2S,5S)-2-(4-allyloxybenzyl)-9-amino-3-aza-5-(9H-9-fluorenylmethyloxycarboxamido)-4-oxononanoate hydrochloride], for which the MIC in experiment [1] (setting [7]) was determined as 15.6 µg/mL.

As for `C=CCOc1ccc(C[C@H](NC(C)=O)C(=O)N[C@H](CCCCN)C(=O)N[C@@H](Cc2ccc(OCC=C)cc2)C(=O)OC)cc1.Cl` [Compound 83, Methyl(2S,5R,8S)-2,8-di(4-allyloxybenzyl)-5-(4-aminobutyl)-3,6,9-triaza-4,7,10-trioxoundecanoate hydrochloride], the MIC in experiment [1] (setting [7]) was found to be 125 µg/mL.

Turning to `C=CCOc1ccc(C[C@H](NC(=O)[C@@H](CCCCN)NC(=O)OCC2c3ccccc3-c3ccccc32)C(=O)OC)cc1.Cl` [Compound 73, Methyl(2S,5R)-2-(4-allyloxybenzyl)-9-amino-3-aza-5-(9H-9-fluorenylmethyloxycarboxamido)-4-oxononanoate hydrochloride], the MIC in experiment [1] (setting [7]) turned out to be 31.3 µg/mL.

For `C=CCOc1ccc(C[C@H](NC(=O)[C@@H](CCCNC(=N)N)NC(=O)OCC2c3ccccc3-c3ccccc32)C(=O)OC)cc1.Cl` [Compound 75], the MIC in experiment [1] (Example 2 compounds, S. aureus, best activity named in the text) was determined as 7.8 µg/mL; in experiment [1] (setting [7]), 7.8 µg/mL.

Take `C=CC[C@H](NC(=O)[C@H](CCCNC(=N)N)NC(=O)OCC1c2ccccc2-c2ccccc21)C(=O)OC.Cl` [Compound 70, Methyl(2S,5S)-2-allyl-3-aza-5-(9H-9-fluorenylmethyloxycarboxamido)-8-(guanidino)-4-oxooctanoate hydrochloride] (Fmoc-Arg-[AllylGly]-OMe): the MIC in experiment [1] (setting [7]) was 125 µg/mL.

As for “Methyl(2S,5S)-2-(4-allyloxybenzyl)-3-aza-5-(9H-9-fluorenylmethylcarboxamido)-8-guanidino-4-oxononanoate hydrochloride [Compound 76]”, in experiment [1] (Example 2 compounds, S. aureus, 18 h, 37° C.), the “Antibacterial activity (MIC μg/mL)” value was 15.6 µg/mL.

For `C=CCOc1ccc(C[C@H](NC(C)=O)C(=O)N[C@H](CCCCN)C(=O)N[C@@H](CC=C)C(=O)OC)cc1` [Compound 77, hydrochloride], the MIC in experiment [1] (setting [8]) was determined as 125 µg/mL.

`COC(=O)[C@@H]1Cc2ccc(cc2)OCC=CCOc2ccc(cc2)C[C@H](NC(C)=O)C(=O)N[C@H](CCCCN)C(=O)N1.Cl` [Compound 65, (10S,13R,16S,4E/Z)-16-Acetamido-13-(4-aminobutyl)-11,14-diaza-10-methoxycarbonyl-2,7-dioxa-12,15-dioxo-1(1,4),8(4,1)-diphenylenecycloheptadecaphane-4-ene]: in experiment [1] (setting [7]), the MIC is 15.6 µg/mL.

As for `C=CC[C@@H](NC(=O)[C@H](CCCNC(=N)N)NC(=O)OCC1c2ccccc2-c2ccccc21)C(=O)OC.Cl` [Compound 72, Methyl(2R,5S)-2-allyl-3-aza-5-(9H-9-fluorenylmethyloxycarboxamido)-8-(guanidino)-4-oxooctanoate hydrochloride] (Fmoc-Arg-[dAllylGly]-OMe), the MIC in experiment [1] (setting [7]) is 125 µg/mL.

Turning to `COC(=O)[C@@H]1CC=CCOc2ccc(cc2)C[C@H](NC(C)=O)C(=O)N[C@H](CCCCN)C(=O)N1` [Compound 12, (7S,10R,13S,4E/Z)-13-Acetamido-10-(4-aminobutyl)-8,11-diaza-7-methoxycarbonyl-2-oxa-9,12-dioxo-1(1,4)phenylenacyclotetradecaphane-4-ene hydrochloride], the MIC in experiment [1] (setting [8]) came out at 62.5 µg/mL.

For the compound `C=CC[C@@H](NC(=O)[C@@H](CCCNC(=N)N)NC(=O)OCC1c2ccccc2-c2ccccc21)C(=O)OC.Cl` [Compound 71, Methyl(2R,5R)-2-allyl-3-aza-5-(9H-9-fluorenylmethyloxycarboxamido)-8-(guanidino)-4-oxooctanoate hydrochloride] (Fmoc-[dR]-[dAllylGly]-OMe), the MIC in experiment [1] (setting [7]) was found to be 125 µg/mL.

With `COC(=O)[C@@H]1CC=CCOc2ccc(cc2)C[C@@H](NC(C)=O)C(=O)N[C@@H](CCCNC(=N)N)C(=O)N1.Cl` [Compound 56, (7S,10S,13R,4E/Z)-13-Acetamido-8,11-diaza-10-(3-[amino{imino}methylamino]propyl)-7-methoxycarbonyl-2-oxa-9,12-dioxo-1(1,4)phenylenacyclotetradecaphane-4-ene], the MIC in experiment [1] (setting [7]) was 125 µg/mL.

In the case of `Cl.Cl.N=C(N)NCCCC[C@@H](NC(=O)CCCOc1ccc2ccccc2c1-c1c(OCCCC(=O)N[C@H](CCCCNC(=N)N)C(=O)Oc2cccc3ccccc23)ccc2ccccc12)C(=O)Oc1cccc2ccccc12` (atropisomer, axis not shown) [Compound 40], the MIC is 0.99 to 15.6 µg/mL in experiment [2] (Staphylococcus aureus, ATCC6538P, read-out: Sa (minimum inhibitory concentration)); > 62.6 µg/mL in experiment [3] (Enterococcus faecium, read-out: 243 (minimum inhibitory concentration)); > 62.6 µg/mL in experiment [4] (Enterococcus faecium, read-out: 449 (minimum inhibitory concentration)); 15.7 to 62.5 µg/mL in experiment [5] (Enterococcus faecium, read-out: 820 (minimum inhibitory concentration)); > 62.6 µg/mL in experiment [6] (Enterococcus faecium, read-out: 987 (minimum inhibitory concentration)).

As to `COC(=O)[C@H]1CC=CCOc2ccc(cc2)C[C@H](NC(C)=O)C(=O)N[C@@H](CCCN=C(N)NS(=O)(=O)c2c(C)c(C)c3c(c2C)CCC(C)(C)O3)C(=O)N1` [Compound 47], the “Sa (minimum inhibitory concentration)” value in experiment [2] is “+++ (MIC of the compound in the range of greater than or equal to 0.99 (μg/ml) and less than or equal to 15.6 (μg/ml))”. The “243 (minimum inhibitory concentration)” value in experiment [3] was “+ (MIC of the compound in the range of greater than or equal to 62.6 (μg/ml))”. Also, in experiment [4], the “449 (minimum inhibitory concentration)” value was “+ (MIC of the compound in the range of greater than or equal to 62.6 (μg/ml))”. Also, the “820 (minimum inhibitory concentration)” value in experiment [5] is “+ (MIC of the compound in the range of greater than or equal to 62.6 (μg/ml))”. Also, the “987 (minimum inhibitory concentration)” value in experiment [6] is reported as “+ (MIC of the compound in the range of greater than or equal to 62.6 (μg/ml))”.
